Structures can show the parent of a compound that is named as a salt. Where two headings read alike, the source gives them in different places.
How the values were obtained:
[1] = system: erythrocytes; assay: Activity to improve the deformation of erythrocytes (time to pass through millipore filter); format: cell-based, male New Zealand rabbit; settings: rabbit washed erythrocytes treated with Ca^2+ and ionofore A-23187; 5 μm millipore filter
Method: A suspension of washed erythrocytes was prepared from a blood collected by heart puncture from a male New Zealand rabbit having a body weight of about 3 kg and having Heparin added thereto, by using a Krebs-Henseleit solution containing 20 mM of HEPES. […] As a control drug, W-7 was used.

[2] = molecular target: T1, Ca^2 + Channel (Cavia porcellus, UniProt O35505); assay: Calcium channel antagonism (isolated guinea pig cecum string, calcium chloride concentration reaction curve); format: cell-based, male Hartley guinea pig; settings: high potassium Krebs solution, 32° C, pretreatment 30 minutes, read-out: Ca^2 + Channel antagonism (pA2) (converted)
T1 construct: The cecum string of a male Hartley guinea pig; from tissue; host or cells: isolated cecum string (taenia caeci) of male Hartley guinea pig
T1 sequence (O35505 whole entry): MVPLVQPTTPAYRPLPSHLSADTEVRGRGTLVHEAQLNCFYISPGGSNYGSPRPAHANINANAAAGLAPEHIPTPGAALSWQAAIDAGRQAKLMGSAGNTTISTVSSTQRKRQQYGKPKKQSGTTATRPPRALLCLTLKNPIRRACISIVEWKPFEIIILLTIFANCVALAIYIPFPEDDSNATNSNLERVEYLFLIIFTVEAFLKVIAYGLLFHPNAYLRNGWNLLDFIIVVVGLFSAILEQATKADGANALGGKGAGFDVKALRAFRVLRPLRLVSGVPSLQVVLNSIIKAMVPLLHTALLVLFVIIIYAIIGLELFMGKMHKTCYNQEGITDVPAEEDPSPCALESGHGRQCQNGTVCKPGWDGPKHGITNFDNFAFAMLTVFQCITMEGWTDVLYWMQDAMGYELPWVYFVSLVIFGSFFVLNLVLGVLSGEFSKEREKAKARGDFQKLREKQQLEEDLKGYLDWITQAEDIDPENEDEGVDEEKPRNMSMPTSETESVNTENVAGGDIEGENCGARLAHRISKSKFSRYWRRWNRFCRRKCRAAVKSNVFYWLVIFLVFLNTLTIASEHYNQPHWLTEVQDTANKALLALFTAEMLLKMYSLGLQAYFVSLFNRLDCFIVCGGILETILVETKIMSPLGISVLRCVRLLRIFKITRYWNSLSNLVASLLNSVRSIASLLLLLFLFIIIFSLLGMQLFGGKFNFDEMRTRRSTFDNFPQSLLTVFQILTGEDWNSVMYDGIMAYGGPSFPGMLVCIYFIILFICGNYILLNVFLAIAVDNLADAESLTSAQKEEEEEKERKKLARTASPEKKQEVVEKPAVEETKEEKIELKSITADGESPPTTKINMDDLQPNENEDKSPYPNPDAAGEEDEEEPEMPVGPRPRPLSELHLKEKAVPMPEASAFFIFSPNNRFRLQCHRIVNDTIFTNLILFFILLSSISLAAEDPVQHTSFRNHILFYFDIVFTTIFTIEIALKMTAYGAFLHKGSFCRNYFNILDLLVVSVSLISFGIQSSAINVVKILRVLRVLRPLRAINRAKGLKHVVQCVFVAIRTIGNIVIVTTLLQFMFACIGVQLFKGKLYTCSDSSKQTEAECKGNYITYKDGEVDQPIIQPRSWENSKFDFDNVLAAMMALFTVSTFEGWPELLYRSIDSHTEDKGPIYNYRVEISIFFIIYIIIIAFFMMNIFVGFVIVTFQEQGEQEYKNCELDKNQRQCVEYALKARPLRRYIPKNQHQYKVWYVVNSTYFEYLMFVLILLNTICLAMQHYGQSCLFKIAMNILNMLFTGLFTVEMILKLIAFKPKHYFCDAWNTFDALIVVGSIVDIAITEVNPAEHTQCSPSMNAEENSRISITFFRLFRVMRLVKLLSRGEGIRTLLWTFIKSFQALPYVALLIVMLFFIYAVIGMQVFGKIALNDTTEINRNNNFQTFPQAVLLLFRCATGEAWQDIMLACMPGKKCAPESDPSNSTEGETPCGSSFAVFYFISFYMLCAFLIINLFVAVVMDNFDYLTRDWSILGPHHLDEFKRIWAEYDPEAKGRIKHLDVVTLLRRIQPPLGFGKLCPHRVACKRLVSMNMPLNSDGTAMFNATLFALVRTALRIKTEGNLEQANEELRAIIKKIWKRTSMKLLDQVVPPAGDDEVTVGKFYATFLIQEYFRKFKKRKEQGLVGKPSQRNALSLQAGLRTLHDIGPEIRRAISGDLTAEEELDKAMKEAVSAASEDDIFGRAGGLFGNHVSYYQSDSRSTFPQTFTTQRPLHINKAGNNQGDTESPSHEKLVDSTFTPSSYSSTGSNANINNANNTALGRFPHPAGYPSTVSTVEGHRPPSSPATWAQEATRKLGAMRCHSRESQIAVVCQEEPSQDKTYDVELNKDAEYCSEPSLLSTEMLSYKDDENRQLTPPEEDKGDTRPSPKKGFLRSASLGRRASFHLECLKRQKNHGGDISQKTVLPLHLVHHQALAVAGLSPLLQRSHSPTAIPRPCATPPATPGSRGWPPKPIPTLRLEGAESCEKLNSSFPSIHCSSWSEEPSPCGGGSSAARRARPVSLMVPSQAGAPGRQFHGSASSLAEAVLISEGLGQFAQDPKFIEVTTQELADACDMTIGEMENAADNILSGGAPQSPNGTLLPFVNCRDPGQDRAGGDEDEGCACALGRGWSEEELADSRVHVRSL
Method: The cecum string of a male Hartley guinea pig having a body weight of 350 g was taken out, and while air was supplied,.it was hanged with a load of 0.5 g in a high potassium Krebs solution bath (32° C) having calcium removed. Calcium chloride was accumulatively added, and the reaction was recorded by means of an isotonic tranduser (manufactured by Nippon Koden K. K.) to obtain a constant standard concentration reaction curve.
On the other hand, pretreatment with a compound of the present invention was conducted for 30 minutes, and then calcium chloride was added to the reaction bath, and from concetration reaction curve thereby obtained, pA2 was obtained.

[3] = molecular target: T2, bovine cerebral calmodulin (Bos taurus, UniProt P62157); assay: Calmodulin antagonism (inhibition of 5'-AMP formation by calmodulin-stimulated c-AMP-PDE); format: biochemical
T2 construct: bovine cerebral calmodulin; from tissue; host or cells: bovine brain (calmodulin); bovine myocardium (PDE)
Text: As a control drug, W-7 [N-(6-aminohexyl)-5-chloro-1-naphthalenesulfonamide]was used.

[4] = 50 m units bovine cerebral calmodulin, 0.1 mM Ca^2+, 1 μM c-AMP, 0.875 m units bovine myocardial c-AMP-PDE, read-out: Calmodulin antagonism IC50

Compound | Activity to improve the deformation of erythrocytes [pass through time (sec.)] [1] [s] | Kb [2] [nM] | IC50 [3, 4] [nM] | IC50 [3] [nM]
CNc1ccc2oc(C[C@H]3O[C@@]4(CC[C@H]3C)O[C@H]([C@H](C)C(=O)c3ccc[nH]3)[C@H](C)C[C@H]4C)nc2c1C(=O)O [Calcium salt of A 23187, reference compound] | 39 | – | – | –
c1ccc(CCON=C(c2ccccc2)c2cccnc2)cc1 [Compound 1, O-(2-phenylethyl)-phenyl-3-pyridylketoxime] | 12 | 275 | 3800 | –
COc1ccc(CON=C(c2ccccc2)c2ccccn2)cc1OC [Compound 13, O-(3,4-dimethoxybenzyl)-phenyl-2-pyridylketoxime] | 16 | 148 | – | –
COc1ccc(CON=C(c2ccccc2)c2cccnc2)cc1OC [Compound 14, O-(3,4-dimethoxybenzyl)-phenyl-3-pyridiylketoxime] | 15 | 437 | 8000 | –
c1ccc(C(=NOCc2cccc3ccccc23)c2cccnc2)cc1 [Compound 20, O-(1-naphthylmethyl)-phenyl-3-pyridylketoxime] | 20 | 525 | – | –
c1ccc(OCCON=C(c2ccccc2)c2cccnc2)cc1 [Compound 26, O-[(2-phenoxy)ethyl]-phenyl-3-pyridylketoxime] | 18 | 234 | 10000 | –
Cc1ccccc1CCON=C(c1ccccc1)c1cccnc1 [Compound 43, O-[2-(2-methylphenyl)ethyl]-phenyl-3-pyridylketoxime] | 14 | 479 | 4100 | –
Clc1ccccc1CCON=C(c1ccccc1)c1cccnc1 [Compound 46] | 18 | – | 8800 | –
Clc1cccc(CCON=C(c2ccccc2)c2cccnc2)c1 [Compound 47] | 15 | – | 6300 | –
Clc1ccc(C(=NOCCc2ccccc2)c2cccnc2)cc1 [Compound 57] | 20 | – | – | 9500
Clc1ccccc1C(=NOCCc1ccccc1)c1cccnc1 [Compound 58] | 12 | – | – | 3500
Cc1ccc(C)c(C(=NOCCc2ccccc2)c2cccnc2)c1 [Compound 62] | 18 | 933 | 8000 | –
Fc1cccc(C(=NOCCc2ccccc2)c2cccnc2)c1 [Compound 63] | 18 | 603 | 5000 | –
FC(F)(F)c1cccc(C(=NOCCc2ccccc2)c2cccnc2)c1 [Compound 64] | 16 | 871 | 6500 | –
O=[N+]([O-])c1cccc(C(=NOCCc2ccccc2)c2cccnc2)c1 [Compound 65] | 18 | 692 | – | –
c1ccc(CCON=C(c2cccnc2)c2cccs2)cc1 [Compound 66] | 17 | 525 | – | –
NCCCCCCNS(=O)(=O)c1cccc2c(Cl)cccc12 [Compound W-7, N-(6-aminohexyl)-5-chloro-1-naphthalenesulfonamide, reference compound] | 25 | – | – | –

— patent US4971985A, “Pyridylketoxime ether compound and pharmaceutical composition containing it” (Kaken Pharmaceutical Co., Ltd., priority 1988, dated 1990)
